Source: patent US8293681B2, “Seed treatment agent and method for protecting plant” (Sumitomo Chemical Company, Ltd., priority 2008, dated 2012)

Legend:
[1] = test system: root rot on pea (Fusarium solani f. sp. pisi); assay: Test Example 1: seed treatment of pea, control of root rot; type: in vivo; settings: pea seeds, 10 gai/100 kg seed
Description: (§1) 10 μl of a dimethylsulphoxide solution of the compound (1b) and 10 g of pea (Waiseiakabanakinusaya) seeds were put in a 50 ml tube and mixed to allow the compound (1b) to stick to the surface of the seeds and then the mixture was allowed to stand still overnight to obtain treated seeds of the present invention. A plastic pot was filled with sandy soil, and the treated seeds of the present invention were disseminated. Then the seeds were covered with sandy soil, which had been mixed with a bran medium on which root rot on pea (Fusarium solani f. sp. pisi) had been allowed to grow and the peas were grown in a greenhouse of from 22 to 24° C. for six days while sprinkling water appropriately. A spore suspension of root rot on pea was perfused on the root of the seedlings for inoculation and the peas were allowed to grow in a greenhouse for further six days and the control effect was checked.
Besides, the incidence of disease was also checked in the case of seeds without the treatment with the agent in order to calculate the control value.
(§2) The incidence of disease was calculated by Equation 1 and the control value was calculated by Equation 2 based on the incidence of disease.
Incidence of disease=(Number of no budding seeds and number of seedlings in which development of disease was observed)×100/(Number of total disseminated seeds) “Equation 1” Control value=100×(A−B)/A “Equation 2” […]

rice 'Bakanae' disease = assay: Test Example 2: immersion of unhulled rice seeds affected with rice 'Bakanae' disease; type: in vivo, Gibberella fujikuroi; set-up: key to Incidence of disease: % of seedlings diseased: diseased×100/total seedlings; key to Control value: 100×(A−B)/A, from incidence of disease (untreated A, treated B); settings: rice seeds immersed 24 hours; for Incidence of disease: untreated 19.2
Description: Incidence of disease=(Number of no budding seeds and number of seedlings in which development of disease was observed)×100/(Number of total disseminated seeds) “Equation 1” Control value=100×(A−B)/A “Equation 2” The flowable of the compound (1a) and the flowable of the compound (1b) were diluted with water to prepare an agent solution containing the compound (1a) or compound (1b). Unhulled rice seeds (Tanginbozu) affected with rice ‘Bakanae’ disease was immersed in the agent solution for 24 hours and then the unhulled rice seeds were taken out of the agent solution and air dried to obtain treated seeds. The treated seeds were immersed in water at 12° C. for 4 days and subsequently in water at 30° C. overnight. A plastic pot was filled with sandy soil, and the treated seeds were disseminated and allowed to grow in a greenhouse at 26° C. for 23 days to investigate the control effect. Besides, the incidence of disease was also checked in the case of seeds without the treatment with the agent in order to calculate the control value. The incidence of disease was calculated by Equation 3 and the control value was calculated based on the incidence of disease by Equation 2. Incidence of disease=(Number of seedlings in which development of disease was observed)×100/(Number of total seedlings) “Equation 3”

[2] = test system: root rot on pea (Fusarium solani f. sp. pisi); assay: Test Example 3: seed treatment of pea, control of root rot, with reference compounds; type: in vivo; set-up: key to Incidence of disease: % = (non-budding seeds + diseased seedlings)×100/total seeds; key to Control value: control value = 100×(A−B)/A, A = untreated, B = treated incidence; settings: pea seeds; for Incidence of disease: untreated 53
Description: Incidence of disease=(Number of no budding seeds and number of seedlings in which development of disease was observed)×100/(Number of total disseminated seeds) “Equation 1” Control value=100×(A−B)/A “Equation 2”
as §1, with “of the compound (1a) or compound (1b)” for “of the compound (1b)”, “allow the compound (1a) or compound (1b)” for “allow the compound (1b)”
Besides, the incidence of disease was also checked in the case of seeds without the treatment with the agent in order to calculate the control value. Also, 2-[2-(2-methyl-phenoxymethyl)-phenyl]-2-methoxy-N-methyl-acetamide, which is described in International Publication WO 95/27,693 and hereinafter referred to as compound A, and 2-[2-(2-chloro-5-methyl-phenoxymethyl)-phenyl]-2-methoxy-N-methyl-acetamide, which is described in International Publication WO 96/07,633 and hereinafter referred to as compound B, were used as reference compounds.
as §2

Structure (SMILES)	Control value [1]	Incidence of disease ([1]; untreated 33)	Control value (rice 'Bakanae' disease; 62.5 ppm)	Incidence of disease (rice 'Bakanae' disease; 62.5 ppm)	Control value (rice 'Bakanae' disease; 125 ppm)	Incidence of disease (rice 'Bakanae' disease; 125 ppm)	Control value (rice 'Bakanae' disease; 500 ppm)	Incidence of disease (rice 'Bakanae' disease; 500 ppm)	Control value (rice 'Bakanae' disease; 2000 ppm)	Incidence of disease (rice 'Bakanae' disease; 2000 ppm)	Control value ([2]; 2.5 gai/100 kg seed)	Incidence of disease ([2]; 2.5 gai/100 kg seed)	Control value ([2]; 10 gai/100 kg seed)	Incidence of disease ([2]; 10 gai/100 kg seed)
CNC(=O)C(OC)c1ccccc1COc1cc(C)ccc1C (racemic) [Compound (1b)]	100	0	95	0.9	93	1.4	92	1.6	93	1.3	81	10	100	0
CNC(=O)[C@H](OC)c1ccccc1COc1cc(C)ccc1C [Compound (1a)]	–	–	–	–	–	–	–	–	–	–	97	4	100	0
CNC(=O)C(OC)c1ccccc1COc1ccccc1C (centres unmarked) [Compound A, 2-[2-(2-methyl-phenoxymethyl)-phenyl]-2-methoxy-N-methyl-acetamide, reference compound]	–	–	–	–	–	–	–	–	–	–	57	23	87	7
CNC(=O)C(OC)c1ccccc1COc1cc(C)ccc1Cl (centres unmarked) [Compound B, 2-[2-(2-chloro-5-methyl-phenoxymethyl)-phenyl]-2-methoxy-N-methyl-acetamide, reference compound]	–	–	–	–	–	–	–	–	–	–	62	20	81	10
